What was measured:
[1] = tested on: SHH/PTCH signaling pathway; test: Response of the immortalized keratinocyte cell line to SHH/PTCH pathway agonist and antagonists; format: cell-based, human; conditions: conclusion statement; no concentration given
Method: Purmorphamine (SMO agonist) and GDC-0449 (SMO antagonist) were diluted in DMSO at stock concentrations of 50 mM and 10 mM, respectively. To avoid side effects and toxicity, the final concentration of DMSO was fixed to 0.1% DMSO.
Theses cells can be expanded in a simple defined medium and they can grow easily due to immortalization. This tool is 3D organotypic culture system to evaluate the efficacy of anti-tumoral molecules specifically targeting inappropriate activation of the SHH/PTCH pathway occurring in BCC but also in numerous non BCC cancers including other cancer implicating inappropriate activation of the SHH/PTCH pathway. Assessment of inhibitor efficacy is applicable in the long term by skin regeration in vivo using animal vector including the mouse or the mini pig sytems.

[2] = tested on: KNBCCS6 E6/E7 immortalized keratinocytes; test: Organotypic skin reconstruction: epidermal invasion of KNBCCS6 E6/E7 keratinocytes into dermal equivalent of NBCCS6 fibroblasts (histology); format: cell-based, human; conditions: 10 mM inhibitor, 0.1% DMSO, added 24 hrs before raising at air-liquid interface; compared with FIG. 4A control (FIG. 4B, 4C)
Method: Organotypic skin reconstruction using KNBCCS E6/E7 was performed using standard protocols as described in (Bernerd et al., 2001). In brief 10^6 NBCCS6 primary fibroblasts cultured in standard culture medium as described above were embeded in a bovine collagen I lattice. After contraction (48 hrs) lattices were fixed on platic using a collagen glue, KNBCCS6 were then seeded (50 000 cells per lattice) within a stainless ring, left for 6 days in immersion; the day 6) before emersion (day 7), mounts were treated with appropriate concentration of SHH:PTCH pathway inhibitor with a final a 0.1% DMSO concentration until the end of experiment. Control cultures were treated with 0.1% DMSO. After 7 days of emersion at air-liquid interface, cultures were harvested for subsequent analyses including histology and assessment of tacer/reporter gene activity. (FIG. 3 and FIG. 4)
FIGS. 4B, 4C show the same as FIG. 4A, except that organotypic skin cultures were grown 24 hrs before being raised at air-liquid interface in the presence ce of […] of GDC-0449 (B) or […] (SANT1) SHH/PTCH pathway inhibitors.

Q: Which “effect on SHH/PTCH signaling pathway in immortalized human keratinocyte cell line” value [1] does the source give for `CS(=O)(=O)c1ccc(C(=O)Nc2ccc(Cl)c(-c3ccccn3)c2)c(Cl)c1` [GDC-0449] here?
A: Its value is “inhibition of the activation”.

Q: What about the “size and frequency of epidermal invasion” value [2] of the same molecule?
A: The value was “substantially decreased”.

Q: Which “effect on SHH/PTCH signaling pathway in immortalized human keratinocyte cell line” value [1] does the source give for `c1ccc2c(Oc3nc(Nc4ccc(N5CCOCC5)cc4)c4ncn(C5CCCCC5)c4n3)cccc2c1` [purmorphamine, Purmorphamine] here?
A: The value was “activation”.

Q: Which results are given for `Cc1nn(-c2ccccc2)c(C)c1/C=N/N1CCN(Cc2ccccc2)CC1` [SANT1]?
A: effect on SHH/PTCH signaling pathway in immortalized human keratinocyte cell line [1]: inhibition of the activation; size and frequency of epidermal invasion [2]: substantially decreased
